{"source": "paper PMC10899790", "about": "“A bromodomain-independent mechanism of gene regulation by the BET inhibitor JQ1: direct activation of nuclear receptor PXR” (Nucleic Acids Research, 2023)", "key": {"CYP3A4": {"system": "CYP3A4", "assay": "RNA induction in HepaRG: CYP3A4 mRNA (RT-qPCR)", "conditions": "differentiated HepaRG, 24 h"}, "PXR": {"system": "PXR", "assay": "RNA induction in HepaRG: PXR RNA (RT-qPCR)", "type": "cell-based, human", "conditions": "differentiated HepaRG, 24 h; FC relative to DMSO"}, "PXR LBD": {"target": "T1, PXR LBD (Homo sapiens, UniProt O75469)", "T1 construct": "GST-PXR LBD protein (cat. # PV4841) were purchased from Thermo Fisher Scientific; purchased Thermo Fisher Scientific PV4841", "T1 sequence (O75469 146-433 limits assumed)": "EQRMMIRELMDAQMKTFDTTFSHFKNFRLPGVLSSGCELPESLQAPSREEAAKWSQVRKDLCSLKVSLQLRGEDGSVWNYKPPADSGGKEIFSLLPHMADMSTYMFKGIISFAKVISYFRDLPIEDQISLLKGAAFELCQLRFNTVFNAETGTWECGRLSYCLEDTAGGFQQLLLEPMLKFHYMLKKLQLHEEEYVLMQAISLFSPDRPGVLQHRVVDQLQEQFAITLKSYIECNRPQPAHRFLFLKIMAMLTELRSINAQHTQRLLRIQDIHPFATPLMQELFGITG", "assay": "TR-FRET PXR LBD ligand binding assay", "conditions": "TR-FRET competition with BODIPY FL vindoline", "procedure": "The TR-FRET PXR LBD ligand binding assay measures binding of PXR ligands by competition with a fluorescently labeled ligand (BODIPY FL vindoline) (Supplementary Figure S3) and was performed as previously described with minor modifications ([24]). […] BODIPY FL vindoline (15 μl/well, 133.3 nM in assay buffer) was dispensed into 384-well low-volume black assay plates. An Echo 650 Acoustic Liquid Handler then dispensed 60 nl/well of compound stocks or DMSO."}, "HepG2 cells": {"system": "HepG2 cells", "assay": "Cytotoxicity assay (CellTiter-Glo)", "type": "cell-based, human", "conditions": "HepG2, 24 h", "procedure": "HepG2 cells (1 × 10^4/well in 25 μl phenol red-free DMEM supplemented with 5% charcoal/dextran-treated FBS) were plated and treated as in the transactivation assays. After 24 h compound treatment, the CellTiter-Glo Luminescent Cell Viability Assay (Promega) and an EnVision microplate reader were used to assess cytotoxicity. DMSO wells with cells served as negative controls, and wells without cells served as positive controls. The averaged luminescence signal of the wells without cells was subtracted from the luminescence signals of all other wells, and the background subtracted values were normalized to DMSO-treated wells containing cells to obtain percent cell viability."}, "CMV promoter": {"system": "CMV promoter", "assay": "CMV-Renilla luciferase reporter", "type": "cell-based, human", "conditions": "HepG2, 24 h; fold change relative to DMSO"}, "human PXR": {"target": "T2, human PXR (Homo sapiens, UniProt O75469)", "T2 sequence (O75469 1-434)": "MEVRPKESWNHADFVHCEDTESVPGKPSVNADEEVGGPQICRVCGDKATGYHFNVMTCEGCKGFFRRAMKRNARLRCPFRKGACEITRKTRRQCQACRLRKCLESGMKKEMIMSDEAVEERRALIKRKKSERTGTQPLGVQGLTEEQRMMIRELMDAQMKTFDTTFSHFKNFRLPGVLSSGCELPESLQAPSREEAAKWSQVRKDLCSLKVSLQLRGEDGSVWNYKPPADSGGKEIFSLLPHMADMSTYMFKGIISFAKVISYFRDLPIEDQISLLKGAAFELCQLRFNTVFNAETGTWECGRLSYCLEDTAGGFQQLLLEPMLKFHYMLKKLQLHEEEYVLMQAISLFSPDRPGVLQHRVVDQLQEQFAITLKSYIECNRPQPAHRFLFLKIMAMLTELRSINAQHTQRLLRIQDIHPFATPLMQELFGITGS", "assay": "PXR transactivation assay (CYP3A4-luciferase reporter)", "procedure": "Assays were performed similarly as previously described with minor modifications ([30–32]). HepG2 cells (7.5 × 10^5/well) were plated in six-well tissue culture-treated plates. The following day, cells were co-transfected with pGL3-CYP3A4-luc (2 μg/well), pRL-CMV (200 ng/well) and 100 ng/well of either empty vector (pcDNA3), pcDNA3-FLAG-PXR, pCMV6-mPXR or pGL4.53-PGK-PXR using Lipofectamine 3000 (Thermo Fisher Scientific). Twenty-four hours after transfection, cells were trypsinized and suspended in phenol red-free DMEM (Thermo Fisher Scientific) supplemented with 5% charcoal/dextran-treated FBS (HyClone), and 1 × 10^4 cells/well in 25 μl media were added to white 384-well plates. […] After 24 h, the Dual-Glo Luciferase Assay System (Promega) and EnVision microplate reader (PerkinElmer) were used to measure firefly and Renilla luciferase activities. CMV-driven Renilla luciferase was used as an indicator of general transcriptional modulation by the test compounds and is plotted as fold change (FC) relative to DMSO controls. Assays utilizing pGL4.54[luc2/TK], pGL4.53[luc2/PGK], or pGL4.13[luc2/SV40] were similarly performed and normalized. For the PXR-responsive CYP3A4-luciferase reporter, the measured relative light units (RLU) were normalized for each well using equation (1),\nRLUT0901317 represents the measured RLU from wells containing 1 μM T0901317. For mPXR assays, 5 μM PCN was used in place of T0901317."}, "BET proteins": {"system": "BET proteins", "design": "method as in PMID 20871596", "conditions": "cited from earlier work"}}, "data": [{"compound": "Cc1sc2c(c1C)C(c1ccc(Cl)cc1)=N[C@H](CC(=O)OC(C)(C)C)c1nnc(C)n1-2", "note": "[(−)-JQ1]", "values": [{"measurement": "endogenous CYP3A4 mRNA expression", "setting": "CYP3A4; FC relative to DMSO", "value": "more robustly induced CYP3A4 expression than JQ1"}, {"measurement": "endogenous CYP3A4 mRNA expression on co-treatment with SPA70", "setting": "CYP3A4; co-treated with SPA70", "value": "without reducing CYP3A4 in the presence of SPA70"}, {"measurement": "PXR RNA expression", "setting": "PXR", "value": "much less than that observed with the BET inhibitors"}, {"measurement": "binding to purified PXR LBD (binding potency)", "setting": "PXR LBD", "value": "comparable to rifampicin in binding potencies"}, {"measurement": "cytotoxicity (cell viability)", "setting": "HepG2 cells", "value": "decreased cytotoxicity"}, {"measurement": "cytotoxicity (cell viability)", "setting": "HepG2 cells; listed as (-)-JQ1", "value": "less cytotoxic than JQ1"}, {"measurement": "CMV-Renilla luciferase reporter expression", "setting": "CMV promoter", "value": "only marginally induced the CMV-Renilla luciferase reporter at high concentrations"}, {"measurement": "activation of CYP3A4-luciferase reporter with PXR expressed from a PGK promoter", "setting": "human PXR; HepG2, 24 h, PGK-driven PXR", "value": "retained activation of the CYP3A4-luciferase reporter"}, {"measurement": "activation of PXR-responsive CYP3A4-luciferase reporter", "setting": "human PXR; human", "value": "activated the CYP3A4-luciferase reporter with similar potency but greater efficacy than JQ1"}, {"measurement": "binding to BET proteins", "setting": "BET proteins", "value": "does not bind BET proteins"}]}]}
